From PubChem BioAssay (NCI)
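Grown in 96-well plates, cells were treated for 48 hours with each compound at five concentrations. Insufficient inhibition: endpoint recorded as highest concentration tested. At the GI50, growth is halved. The concentration for full growth arrest is given as TGI.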

How the values were obtained:
Assay in all cases: NCI tumour cell line growth inhibition, 48 h
CAKI-1 renal = tested on: CAKI-1 renal
KM12 colon = tested on: KM12 colon
CCRF-CEM leukemia = tested on: CCRF-CEM leukemia
RPMI-8226 leukemia = tested on: RPMI-8226 leukemia
HCT-116 colon = tested on: HCT-116 colon
U251 CNS = tested on: U251 CNS
HOP-62 NSCLC = tested on: HOP-62 NSCLC
K-562 leukemia = tested on: K-562 leukemia
NCI/ADR-RES ovarian = tested on: NCI/ADR-RES ovarian
TK-10 renal = tested on: TK-10 renal
SF-268 CNS = tested on: SF-268 CNS
HOP-92 NSCLC = tested on: HOP-92 NSCLC
UACC-257 melanoma = tested on: UACC-257 melanoma
IGROV1 ovarian = tested on: IGROV1 ovarian
SNB-19 CNS = tested on: SNB-19 CNS
UO-31 renal = tested on: UO-31 renal
MOLT-4 leukemia = tested on: MOLT-4 leukemia
NCI-H460 lung = tested on: NCI-H460 lung
A498 renal = tested on: A498 renal

Structure (SMILES) | TGI (CAKI-1 renal) | TGI (KM12 colon) | TGI (CCRF-CEM leukemia) | TGI (RPMI-8226 leukemia) | TGI (HCT-116 colon) | TGI (U251 CNS) | TGI (HOP-62 NSCLC) | TGI (K-562 leukemia) | TGI (NCI/ADR-RES ovarian) | TGI (TK-10 renal) | TGI (SF-268 CNS) | TGI (HOP-92 NSCLC) | TGI (UACC-257 melanoma) | TGI (IGROV1 ovarian) | TGI (SNB-19 CNS) | TGI (UO-31 renal) | TGI (MOLT-4 leukemia) | TGI (NCI-H460 lung) | TGI (A498 renal) | GI50 (A498 renal)
CO[C@]12S[C@@H]3CCCC[C@@]31C(C)(C)C(=O)N2c1ccccc1 | > 100 µM | > 100 µM | > 100 µM | 73 µM | > 100 µM | > 100 µM | 53.5 µM | > 100 µM | 78.8 µM | > 100 µM | > 100 µM | > 100 µM | > 100 µM | > 100 µM | > 100 µM | > 100 µM | 78.2 µM | > 100 µM | > 100 µM | –
O=C1CCC2c3ccccc3NCN12 (centres undefined) | > 100 µM | > 100 µM | > 100 µM | > 100 µM | > 100 µM | > 100 µM | > 100 µM | > 100 µM | > 100 µM | > 100 µM | > 100 µM | > 100 µM | > 100 µM | > 100 µM | > 100 µM | > 100 µM | > 100 µM | > 100 µM | > 100 µM | –
CC/C(Cl)=N\OC(=O)Nc1ccc(OC)c(C)c1 | 1.84 µM | > 60 µM | > 38.8 µM | > 55.8 µM | 29.6 µM | > 100 µM | > 82.5 µM | > 91.2 µM | 37.5 µM | 41.7 µM | > 77.1 µM | 5.69 µM | 37 µM | 39.1 µM | > 100 µM | 35.5 µM | 47 µM | > 100 µM | 61.2 µM | –
O=S(=O)(O)c1ccc2c(N=Nc3ccc(S(=O)(=O)O)c4ccccc34)c(O)c(S(=O)(=O)O)cc2c1 | > 100 µM | > 100 µM | > 100 µM | > 100 µM | > 100 µM | > 100 µM | > 100 µM | > 100 µM | > 100 µM | > 100 µM | > 100 µM | > 100 µM | > 100 µM | > 100 µM | > 100 µM | > 100 µM | > 100 µM | > 100 µM | > 100 µM | –
COc1cc2cc3c4c(cc(OC)c(OC)c4c2cc1OC)CCN3C | 25.7 µM | > 50 µM | 7.27 µM | 12.9 µM | > 25.7 µM | > 50 µM | > 50 µM | > 50 µM | > 48.2 µM | > 23.4 µM | > 50 µM | > 50 µM | 27.3 µM | > 43.7 µM | > 50 µM | 40.6 µM | > 31.4 µM | > 27.3 µM | > 38.1 µM | –
CC(=O)Oc1c2ccsc2c(OC(C)=O)c2ccsc12 | 3.66 µM | 3.24 µM | > 21.4 µM | > 28 µM | 2.21 µM | 2.45 µM | 4.4 µM | > 100 µM | 1.23 µM | 4.2 µM | 5.81 µM | 2.75 µM | 0.4 µM | 3.5 µM | 3.17 µM | 2.57 µM | 4.47 µM | 3.57 µM | 3.29 µM | –
Cc1ccc(S(=O)(=O)N/N=C2\CCCCCCCCCCC2CN(C)C)cc1 (centres undefined) | 50.4 µM | 31.8 µM | 37.2 µM | > 100 µM | 28.2 µM | 29.3 µM | 33.8 µM | 56.5 µM | 29.3 µM | 27.6 µM | 54.3 µM | 24.7 µM | 28.7 µM | 30.7 µM | 30.4 µM | 21 µM | > 100 µM | 25.3 µM | 34.9 µM | –
COC(=O)c1c(O)ccc2c1c1c(n2Cc2ccccc2OC)C(=O)c2ccccc2C1=O | 37.9 µM | 23.4 µM | 17.7 µM | 10.5 µM | 16.6 µM | 24.4 µM | 27.8 µM | 17.3 µM | 39.2 µM | 65 µM | 29.7 µM | 22.4 µM | 55.1 µM | 28.3 µM | 95.9 µM | 36.9 µM | 1.42 µM | 16.6 µM | > 100 µM | –
Nc1nc(Cl)c2ncn(Cc3cccc(CCl)c3)c2n1 | 5.37 µM | 16 µM | > 30.7 µM | 9.81 µM | 4.05 µM | 6.15 µM | 9.48 µM | > 51 µM | 11.5 µM | 22.1 µM | 18.9 µM | 24.5 µM | 20.7 µM | 12.3 µM | 20.6 µM | 33.7 µM | > 30.8 µM | 27 µM | 50.8 µM | –
CCOC(=O)CCC(NC(=O)c1ccc(Oc2nc3c(N)cc(C(F)(F)F)cc3nc2-c2ccccc2)cc1)C(=O)OCC (centres undefined) | 8.91 µM | > 100 µM | > 100 µM | > 100 µM | > 25.2 µM | > 100 µM | 28.5 µM | > 100 µM | > 100 µM | > 100 µM | > 71.2 µM | > 100 µM | > 31.6 µM | > 100 µM | > 80.9 µM | > 100 µM | > 100 µM | > 100 µM | > 94.3 µM | –
Cc1ccc(S(=O)(=O)N/N=C2\CCC3(O)CC2(C)CCC2C3CC2(C)C)cc1 (centres undefined) | > 100 µM | > 100 µM | > 100 µM | > 100 µM | > 100 µM | > 100 µM | > 100 µM | > 100 µM | > 100 µM | 75.8 µM | > 100 µM | > 100 µM | > 100 µM | > 100 µM | > 100 µM | 80.3 µM | > 100 µM | 46.7 µM | > 100 µM | –
O=C1OCC(c2ccc(Cl)cc2)=C1Cl | 88.4 µM | 36 µM | 75.6 µM | 86.2 µM | 28.3 µM | > 100 µM | 56 µM | 92.6 µM | 55.8 µM | 60.6 µM | 70 µM | 58.9 µM | > 100 µM | 25.2 µM | > 100 µM | 33.9 µM | > 100 µM | 46.2 µM | > 100 µM | –
CN(/N=C/c1ccccn1)C1=NCCCN1 | > 100 µM | > 100 µM | > 100 µM | > 100 µM | > 100 µM | > 100 µM | > 100 µM | > 100 µM | > 100 µM | > 100 µM | > 100 µM | > 100 µM | > 100 µM | > 100 µM | > 100 µM | > 100 µM | > 100 µM | > 100 µM | > 100 µM | –
COc1ccc(CNc2nc(NCc3ccc(OC)cc3)nc(NC3CCCC3)n2)cc1 | > 84.1 µM | 1.59 µM | > 100 µM | > 30.4 µM | 10.1 µM | > 25.3 µM | > 100 µM | > 24.7 µM | 13.4 µM | > 26.1 µM | > 100 µM | > 100 µM | > 100 µM | > 33.7 µM | > 100 µM | > 91.1 µM | > 100 µM | > 33.8 µM | > 100 µM | 62.1 µM
O=c1[nH][nH]c(=O)n1/N=C/c1ccccc1 | > 100 µM | > 100 µM | > 100 µM | > 100 µM | > 100 µM | > 100 µM | > 100 µM | > 100 µM | > 100 µM | > 100 µM | > 100 µM | > 100 µM | > 100 µM | > 100 µM | > 100 µM | > 100 µM | > 100 µM | > 100 µM | > 100 µM | –
CCOC(=O)CSC1NC(C(=O)OC)CC1OC (centres undefined) | > 100 µM | > 100 µM | > 100 µM | > 100 µM | > 100 µM | > 100 µM | > 100 µM | > 100 µM | > 100 µM | > 100 µM | > 100 µM | > 100 µM | > 100 µM | > 100 µM | > 100 µM | > 100 µM | > 100 µM | > 100 µM | > 100 µM | –
CC(C)OC(=O)[C@H]1ON2O[C@H](O[C@@H]3CCCC[C@H]3c3ccccc3)C([Si](C)(C)c3ccccc3)[C@H]3OC(=O)[C@@H]1C32 (some centres undefined) | > 100 µM | > 100 µM | > 100 µM | > 100 µM | > 100 µM | > 100 µM | > 100 µM | > 100 µM | > 100 µM | > 100 µM | > 100 µM | > 100 µM | > 100 µM | > 100 µM | > 100 µM | > 100 µM | > 100 µM | > 100 µM | > 100 µM | –
c1ccc2c(c1)c1c3c(c4c(n32)=NCCN4)CCC1 | > 100 µM | > 100 µM | > 100 µM | 63.2 µM | > 100 µM | > 100 µM | > 100 µM | > 100 µM | 99.7 µM | > 100 µM | > 100 µM | 88 µM | > 100 µM | > 100 µM | > 100 µM | > 100 µM | 60.9 µM | > 100 µM | 65.8 µM | –
CCS(=O)c1c2cc(OC)ccc2nc2ccc(OC)cc12 (centres undefined) | 9.44 µM | 41 µM | > 25.6 µM | 16.5 µM | 7.52 µM | > 55.3 µM | 51.1 µM | 5.81 µM | 44.6 µM | 10.3 µM | > 62 µM | > 53.1 µM | 12 µM | 10 µM | 45.4 µM | 13.1 µM | > 23.8 µM | > 68 µM | 33.6 µM | –
Cc1cn(Cc2cccc(C3=NCCCN3)c2)c(=O)n(Cc2cccc(C3=NCCCN3)c2)c1=O | > 100 µM | > 100 µM | > 100 µM | > 100 µM | > 100 µM | > 100 µM | > 100 µM | > 100 µM | > 100 µM | > 100 µM | > 100 µM | > 100 µM | > 100 µM | > 100 µM | > 100 µM | > 100 µM | > 100 µM | > 100 µM | > 100 µM | –
CCC/C(Cl)=N/OC(NC(=O)OCC)(C(F)(F)F)C(F)(F)F | 35.6 µM | > 100 µM | 87.9 µM | 56.1 µM | 34.6 µM | > 100 µM | > 100 µM | 62.6 µM | > 100 µM | 33.3 µM | 36.6 µM | 36.2 µM | 37.7 µM | 30.9 µM | > 100 µM | 33.8 µM | 71.4 µM | > 100 µM | > 100 µM | –
CN(C)CCCNC(=O)c1cc(NS(=O)(=O)c2ccc3c(c2)C(=O)c2ccccc2C3=O)cn1C | > 100 µM | 41.1 µM | > 100 µM | 53.2 µM | > 100 µM | > 100 µM | > 100 µM | > 100 µM | > 100 µM | 51.3 µM | 72.5 µM | > 100 µM | 37.6 µM | 75.1 µM | 39.6 µM | > 100 µM | > 100 µM | 54.9 µM | 42.6 µM | –
